Experimental data: patent publication US8614236B2 (University of Washington, priority 2006, dated 2013)
Entries after “also recorded” stand apart in the source; their conditions may differ. Bridge positions count the residues as written; N and C are the ends. Ends that are not written are not given here.

Legend:
PASMCs [1] = test: Changes in membrane potential (Em) in PASMCs, DiBAC4(3) fluorescence; type: cell-based, rat; details: agent alone; for increase in DiBAC4(3) fluorescence: KCl 60 mM, ET-1 10^−8 M
Protocol: (§1) The method for obtaining single PASMCs has been described previously in Shimoda L. A., et al., Am J Physiol 274: 842-853 (1998), which is hereby incorporated by reference in its entirety. Intrapulmonary arteries (200-600 μm o.d.) were isolated from male Wistar rats (250-350 g) and cleaned of connective tissue. After the lumen was gently rubbed with a cotton swab to remove the endothelial cells, the arteries were allowed to recover for 30 minutes in cold (4° C.) HBSS containing (in mM): 130 NaCl, 5 KCl, 1.2 MgCl2, 1.5 CaCl2, 10 N-[2-hydroxyethyl]piperazine-N′-[2-ethanesulfonic acid] (HEPES) and 10 glucose, with pH adjusted to 7.2 with 5 M NaOH, followed by 20 minutes in reduced-Ca^2+ (20 μM CaCl2) HBSS at room temperature. The tissue was enzymatically digested in reduced-Ca^2+ HBSS containing collagenase (type I; 1750 U/ml), papain (9.5 U/ml), bovine serum albumin (2 mg/ml) and dithiothreitol (1 mM) at 37° C. for 20 minutes. Following digestion, single smooth muscle cells were dispersed by gentle trituration with a wide-bore transfer pipette in Ca^2+-free HBSS and the cell suspension was placed on 25 mm glass cover slips. PASMCs were transiently cultured in Ham's-F-12 media supplemented with 0.5% fetal bovine serum and 1% penicillin/streptomycin for 24-48 hrs. before study.
Changes in membrane potential were measured using the fluorescence dye, DiBAC4(3), which was excited at 490 nm and detected at 510 nm. Cells were loaded by continuous perfusion with Kreb's solution containing 500 nM DiBAC4(3) and were perfused for at least 15 minutes before beginning measurements to insure stable uptake of dye. Baseline DiBAC4(3) fluorescence was monitored for 5 minutes with control Kreb's, followed by 10 minutes with Kreb's in the presence or absence of AZ (100 μM). At the end of this period, cells were challenged with KCl (60 mM) or endothelin-1 (ET-1) (10^−8 M). Since DiBAC4(3) is a single wavelength dye, any change in the concentration of the dye in the perfusion medium (i.e., differing concentrations between perfusion reservoirs) could result in a change in fluorescence that is not due to a change in membrane potential. To minimize the possibility of this type of error, all experiments were performed using inflow from a single reservoir into which AZ, KCl or ET-1 were dissolved directly.
AZ has recently been proposed to alter the activation of Ca^2+-activated K^+ channels, causing hyperpolarization. See Pickkers P., et al., Br J Pharmacol 132: 443-450 (2001); Tricarico D., et al., Ann Neurol 48: 304-312 (2000); and Tricarico D., et al., Faseb J 18: 760-761 (2004), which are hereby incorporated by reference in their entirety. Since depolarization is believed to contribute to the hypoxia-induced increase in [Ca^2+]i, AZ-induced hyperpolarization could prevent activation of voltage-gated Ca^2+ channels and an increase in [Ca^2+]i in response to hypoxia. In order to test this possibility, the Em-sensitive fluorescent dye, DiBAC4(3) was used. […] Baseline fluorescence was relatively stable over time, decreasing by 4.11±0.4% over 10 minutes (n=90 cells).

PASMCs [2] = test: Intracellular pH (pHi) in PASMCs (BCECF-AM); type: cell-based, rat
Protocol: as §1
pHi within PASMCs was monitored using the cell permeant pH sensitive dye 2′,7′-bis(carboxyethyl)-5(6)-carboxyflourescein (BCECF-AM). Cells were incubated with BCECF-AM for 60 min at 37° C. under an atmosphere of 21% O2-5% CO2. Cells were then washed with Kreb's solution for 15 min at 37° C. to remove extracellular dye and allow complete de-esterification of cytosolic dye. Cells were excited with light at 490 and 440 nm and light emitted from the cells was detected at 530 nm. The ratio of 490 to 440 nm emission was calculated and converted into pH values by performing a calibration curve after each experiment. PASMCs were subjected to a high K^+ buffer containing 10 μM nigericin, which allowed the cell to adopt the pH of the high K^+ buffer. Two high K^+/nigericin buffers were used to set pH to 6.5 or 7.5, pHi was estimated from in situ calibration after each experiment. Cells were perfused with a solution containing (in mM): 105 KCl, 1 MgCl2, 1.5 CaCl2, 10 glucose, 20 HEPES-Tris and 0.01 nigericin to allow pHi to equilibrate to external pH as in Quinn D. A., et al., Am J Respir Cell Mol Biol 5: 586-591 (1991), which is hereby incorporated by reference in its entirety. A two point calibration was created from fluorescence measured as pHi was adjusted with KOH from 6.5 to 7.5. Intracellular H^+ ion concentration ([H^+]i) was determined from pHi using the formula: pHi=−log ([H^+]i).

carbonic anhydrase = test: Carbonic anhydrase inhibition; type: biochemical
Description: Benzolamide (BZ) was obtained from Dr. Thomas H. Maren, University of Florida Department of Pharmacology.

PASMCs [3] = test: KCl-induced Ca2+ responses in PASMCs; type: cell-based, rat; details: 100 μM
Protocol: as §1, with “Intrapulmonary” for “The method for obtaining single PASMCs has been described previously in Shimoda L. A., et al., Am J Physiol 274: 842-853 (1998), which is hereby incorporated by reference in its entirety. Intrapulmonary”, “The tissue was enzymatically digested in reduced-Ca^2+ HBSS containing collagenase (type I; 1750 U/ml), papain (9.5 U/ml), bovine serum albumin (2 mg/ml) and dithiothreitol (1 mM) at 37° C. for 20 minutes.” left out
(§2) Acute hypoxia increases intracellular [Ca^2+] in pulmonary arterial smooth muscle by enhancing capacitative Ca^2+ entry. […] Ratiometric measurement of fluorescence from the dye was performed on a workstation (Intracellular Imaging Inc, Cincinnati, Ohio) consisting of a Nikon TSE 100 Ellipse inverted microscope with epi-fluorescence attachments. The light beam from a xenon arc lamp was filtered at 340 and 380 nm, and focused onto the PASMCS under examination via a 20× fluorescence objective (Super Fluor 20, Nikon). Light emitted from the cell at 510 nm was returned through the objective and detected by a cooled CCD imaging camera. An electronic shutter (Sutter Instruments) was used to minimize photobleaching of dye. Protocols were executed and data collected on-line with InCyte software (Intracellular Imaging Inc). [Ca^2+]i was estimated from in vitro calibration solutions.

PASMCs [4] = test: Basal intracellular Ca2+ concentration in PASMCs (Fura-2); type: cell-based, rat
Protocol: as §1, with “Intrapulmonary” for “The method for obtaining single PASMCs has been described previously in Shimoda L. A., et al., Am J Physiol 274: 842-853 (1998), which is hereby incorporated by reference in its entirety. Intrapulmonary”, “The tissue was enzymatically digested in reduced-Ca^2+ HBSS containing collagenase (type I; 1750 U/ml), papain (9.5 U/ml), bovine serum albumin (2 mg/ml) and dithiothreitol (1 mM) at 37° C. for 20 minutes.” left out
as §2

PASMCs [5] = test: Hypoxia-induced increase in [Ca2+]i in PASMCs (4% O2); type: cell-based, rat
Protocol: as §1, with “Intrapulmonary” for “The method for obtaining single PASMCs has been described previously in Shimoda L. A., et al., Am J Physiol 274: 842-853 (1998), which is hereby incorporated by reference in its entirety. Intrapulmonary”, “The tissue was enzymatically digested in reduced-Ca^2+ HBSS containing collagenase (type I; 1750 U/ml), papain (9.5 U/ml), bovine serum albumin (2 mg/ml) and dithiothreitol (1 mM) at 37° C. for 20 minutes.” left out
as §2

“endothelin-1 (CSCSSLMDKECVYFCHLDIIW; disulfide 1-15, 3-11; ends not checked; UniProt P05305 53-73, looked up) [ET-1]” was tested, and the “increase in DiBAC4(3) fluorescence” value (PASMCs [1]) was 75.6±13.4%.

With `CNS(=O)(=O)c1nnc(NC(C)=O)s1` [N-Meth-AZ] the “basal pHi, Treatment” value (PASMCs [2]; 100 μM) was 7.12±0.01, the “effect on basal pHi” value (PASMCs [2]; 100 μM) was “no significant effect; also recorded: minimal effect” and the “basal pHi, Baseline” value (PASMCs [2]; before the compound) was 7.13±0.02. The “CA inhibiting action” value (carbonic anhydrase) was “no CA inhibiting action”, the “effect on KCl-induced increase in [Ca^2+]i” value (PASMCs [3]) was “similar” and the “basal [Ca^2+]i, Treatment” value (PASMCs [4]; 100 μM, after 10 min of perfusion) was 200.9 ± 11.3 nM. For the same compound, the “basal [Ca^2+]i, Baseline” value (PASMCs [4]; before perfusion with the compound) was 193.4 ± 11.0 nM, the “increase in [Ca^2+]i induced by hypoxia” value (PASMCs [5]; 100 μM, control 141.1±32.2 nM) was 33.2 ± 17.4 nM and the “effect on hypoxia-induced increase in [Ca^2+]i” value (PASMCs [5]; 10-100 μM) was “markedly reduced; also recorded: prevented”.

`[Cl-].[K+]` [KCl] was tested, and the “increase in DiBAC4(3) fluorescence” value (PASMCs [1]) was 61.58±12.8%.

In the case of `CC(N/C(=N\C#N)Nc1ccncc1)C(C)(C)C` (stereo not drawn) [pinacidil], the “decrease in DiBAC4(3) fluorescence” value (PASMCs [1]; 100 μM) is reported as 19.76±3.3%.
